Test results reported in US20030004172A1, “Fused pyrimidinone matrix metalloproteinase inhibitors” (priority 2001, published 2003).

biological target: MMP-13CD (catalytic domain of collagenase-3) (Homo sapiens, UniProt P45452); assay: Thiopeptolide substrate hydrolysis inhibition assay, MMP-13CD; assay type: biochemical; conditions: Table I; thiopeptolide substrate, HEPES pH 7.0, 22° C.; read-out: MMP-13CD IC50
Text: Thiopeptolide substrates show virtually no decomposition or hydrolysis at or below neutral pH in the absence of a matrix metalloproteinase enzyme.

Row | IC50 | Compound
1 | 30 µM | COc1cccc(CNC(=O)c2cc3c(=O)n(CC(=O)C(CC(=O)OC(C)(C)C)NC(=O)OCc4ccccc4)c(=O)n(C)c3s2)c1 (stereo not shown) [Example 299]
2 | 20 µM | CC(CN(C)C)OC(=O)c1cc2c(=O)n(Cc3ccccc3)c(=O)n(C)c2s1 (stereo not shown) [Example 165, 3-Benzyl-1-methyl-2,4-dioxo-1,2,3,4-tetrahydro-thieno[2,3-d]pyrimidine-6-carboxylic acid 2-dimethylamino-1-methyl-ethyl ester]
3 | > 100 µM | Cn1c(=O)n(Cc2ccccc2)c(=O)c2cc(C(=O)OCC3CCCCCC3)sc21 [Example 197, 3-Benzyl-1-methyl-2,4-dioxo-1,2,3,4-tetrahydro-thieno[2,3-d]pyrimidine-6-carboxylic acid cycloheptylmethyl ester]
4 | 18 µM | COc1ccc(CNC(=O)c2cc3c(=O)[nH]c(=O)n(C)c3s2)cc1 [Example 216]
5 | 0.2 µM | Cn1c(=O)n(Cc2ccccc2)c(=O)c2cc(C(=O)OCc3ccoc3)sc21 [Example 207, 3-Benzyl-1-methyl-2,4-dioxo-1,2,3,4-tetrahydro-thieno[2,3-d]pyrimidine-6-carboxylic acid furan-3-ylmethyl ester]
6 | 11 µM | CN1CCC(OC(=O)c2cc3c(=O)n(Cc4ccccc4)c(=O)n(C)c3s2)CC1 [Example 161, 3-Benzyl-1-methyl-2,4-dioxo-1,2,3,4-tetrahydro-thieno[2,3-d]pyrimidine-6-carboxylic acid 1-methyl-piperidin-4-yl ester]
7 | 0.22 µM | COc1cc(CNC(=O)c2cc3c(=O)n(CC4CCCCC4)c(=O)n(C)c3s2)ccn1 [Example 371, 3-Cyclohexylmethyl-1-methyl-2,4-dioxo-1,2,3,4-tetrahydro-thieno[2,3-d]pyrimidine-6-carboxylic acid (2-methoxy-pyridin-4-ylmethyl)-amide]
8 | 15 µM | Cn1c(=O)n(Cc2ccccc2)c(=O)c2cc(C(=O)OCCc3ccccn3)sc21 [Example 206, 3-Benzyl-1-methyl-2,4-dioxo-1,2,3,4-tetrahydro-thieno[2,3-d]pyrimidine-6-carboxylic acid 2-pyridin-2-yl-ethyl ester]
9 | > 100 µM | Cn1c(=O)n(Cc2ccccc2)c(=O)c2cc(C(=O)NCCc3cccc(C(F)(F)F)c3)sc21 [Example 349, 3-Benzyl-1-methyl-2,4-dioxo-1,2,3,4-tetrahydro-thieno[2,3-d]pyrimidine-6-carboxylic acid[2-(3-trifluoromethyl-phenyl)-ethyl]-amide]
10 | 1.5 µM | COc1ccc(CNC(=O)c2cc3c(=O)n(CCC(=O)c4ccccc4)c(=O)n(C)c3s2)cc1 [Example 254]
11 | 30 µM | COc1ccc(CNC(=O)c2cc3c(=O)n(CCc4cccc5ccccc45)c(=O)n(C)c3s2)cc1 [Example 259]
12 | 0.00715 µM | Cn1c(=O)n(Cc2ccncc2)c(=O)c2cc(C(=O)OCc3ccccc3)sc21 [Example 308, 1-Methyl-2,4-dioxo-3-pyridin-4-ylmethyl-1,2,3,4-tetrahydro-thieno[2,3-d]pyrimidine-6-carboxylic acid benzyl ester]
13 | 0.27 µM | C/C=C/Cn1c(=O)c2cc(C(=O)NCc3ccc(OC)cc3)sc2n(C)c1=O [Example 258]
14 | 3.9 µM | Cn1c(=O)c2cc(C(=O)OCc3ccccc3)sc2n(C)c1=O [Example 127, 1,3-Dimethyl-2,4-dioxo-1,2,3,4-tetrahydro-thieno[2,3-d]pyrimidine-6-carboxylic acid benzyl ester]
15 | > 100 µM | Cn1c(=O)n(Cc2ccccc2)c(=O)c2cc(C(=O)NCCCCc3ccccc3)sc21 [Example 338, 3-Benzyl-1-methyl-2,4-dioxo-1,2,3,4-tetrahydro-thieno[2,3-d]pyrimidine-6-carboxylic acid (4-phenyl-butyl)-amide]
16 | 0.92 µM | COc1ccc(COC(=O)c2cc3c(=O)n(Cc4ccccc4)c(=O)n(C)c3s2)cc1 [Example 166, 3-Benzyl-1-methyl-2,4-dioxo-1,2,3,4-tetrahydro-thieno[2,3-d]pyrimidine-6-carboxylic acid 4-methoxy-benzyl ester]
17 | 3.6 µM | Cn1c(=O)n(Cc2ccccc2)c(=O)c2cc(C(=O)NCc3cccs3)sc21 [Example 344, 3-Benzyl-1-methyl-2,4-dioxo-1,2,3,4-tetrahydro-thieno[2,3-d]pyrimidine-6-carboxylic acid (thiophen-2-ylmethyl)-amide]
18 | 2.3 µM | Cn1c(=O)n(Cc2ccccc2)c(=O)c2cc(C(=O)OC3CCOC3)sc21 (stereo not shown) [Example 191, 3-Benzyl-1-methyl-2,4-dioxo-1,2,3,4-tetrahydro-thieno[2,3-d]pyrimidine-6-carboxylic acid tetrahydro-furan-3-yl ester]
19 | 4.9 µM | COc1ccc(CCCOC(=O)c2cc3c(=O)n(Cc4ccccc4)c(=O)n(C)c3s2)cc1 [Example 189, 3-Benzyl-1-methyl-2,4-dioxo-1,2,3,4-tetrahydro-thieno[2,3-d]pyrimidine-6-carboxylic acid 3-(4-methoxy-phenyl)-propyl ester]
20 | 17 µM | COc1cc(CNC(=O)c2cc3c(=O)[nH]c(=O)n(C)c3s2)ccn1 [Example 219, 1-methyl-2,4-dioxo-1,2,3,4-tetrahydro-thieno[2,3-d]pyrimidine-6-carboxylic acid (2-methoxy-pyridin-4-ylmethyl)-amide]
21 | 4.9 µM | COc1ccc(CNC(=O)c2cc3c(=O)n(C/C=C/C(=O)O)c(=O)n(C)c3s2)cc1 [Example 226, (E)-4-[6-(4-Methoxy-benzylcarbamoyl)-1-methyl-2,4-dioxo-1,4-dihydro-2H-thieno[2,3-d]pyrimidin-3-yl]-but-2-enoic acid]
22 | 1 µM | Cn1c(=O)n(Cc2ccccc2)c(=O)c2cc(C(=O)NCc3cccc(Cl)c3)sc21 [Example 332, 3-Benzyl-1-methyl-2,4-dioxo-1,2,3,4-tetrahydro-thieno[2,3-d]pyrimidine-6-carboxylic acid 3-chloro-benzylamide]
23 | 30 µM | Cn1c(=O)n(Cc2ccccc2)c(=O)c2cc(C(=O)NCc3ccccc3Cl)sc21 [Example 345, 3-Benzyl-1-1-methyl-2,4-dioxo-1,2,3,4-tetrahydro-thieno[2,3-d]pyrimidine-6-carboxylic acid 2-chloro-benzylamide]
24 | > 100 µM | COc1cccc(CNC(=O)c2cc3c(=O)n(CCNC(=O)c4ccccc4)c(=O)n(C)c3s2)c1 [Example 294]
25 | 30 µM | Cn1c(=O)n(Cc2ccccc2)c(=O)c2cc(C(=O)NCc3ccc(Cl)cc3Cl)sc21 [Example 329, 3-Benzyl-1-methyl-2,4-dioxo-1,2,3,4-tetrahydro-thieno[2,3-d]pyrimidine-6-carboxylic acid 2,4-dichloro-benzylamide]
26 | > 100 µM | O=C(OCCc1ccccc1)c1cc2c(=O)n(Cc3ccccc3)c(=O)[nH]c2s1 [Example 12, 3-Benzyl-2,4-dioxo-1,2,3,4-tetrahydro-thieno[2,3-d]pyrimidine-6-carboxylic acid 2-phenylethyl ester]

Row | Compound | IC50
27 | CC(=O)OCCn1c(=O)c2cc(C(=O)OCc3ccccc3)sc2n(C)c1=O [Example 145, 3-(2-Acetoxy-ethyl)-1-methyl-2,4-dioxo-1,2,3,4-tetrahydro-thieno[2,3-d]pyrimidine-6-carboxylic acid benzyl ester] | 1.3 µM
28 | 3-Benzyl-1-methyl-2,4-dioxo-1,2,3,4-tetrahydro-thieno[2,3-d]pyrimidine-6-carboxylic acid 2,2,2-trifluoro-1-trifluoromethyl-ethyl ester [Example 168] | 25 µM
